In patent US20070207975A1, “Materials and methods for treating and preventing Her-2/neu overexpressing, FAS-elevated cancer cells” (EVANSTON NORTHWESTERN HEALTHCARE, priority 2006, published 2007):

Experiments:
Format in all cases: cell-based, human
p185^Her-2/neu = experiment: Flow cytometric analysis of cell surface-associated p185Her-2/neu; conditions: for reduction of cell surface-associated p185^Her-2/neu expression: 10 mM OA, 48 hours, 0.1% FBS; for down-regulation of p185^Her-2/neu expression: OA 5 mM, trastuzumab 5 mg/ml
Description: FIG. 1. […] FIG. 2. […] The amount of cell surface-associated p185^Her-2/neu was quantified by flow cytometric analyses using a specific antibody against the extracellular domain of p185^Her-2/neu (Ab-5), as described herein. The mean fluorescence signal±SD (n=3) was quantified using the geo mean fluorescence (GM) parameter provided with the Cell Quest Software (Becton Dickinson). […] After labeling, cells were washed thoroughly, and localization of p185^Her-2/neu was detected by indirect immunofluorescence by incubating with FITC-conjugated anti-mouse IgG. After counterstaining with DAPI, cells were examined and photographed using a Zeiss fluorescent microscope equipped with a built-in camera. […] Before experiments, cells were serum-starved overnight and then cultured in IMEM containing 0.1% FBS in the absence or presence of GLA (Sigma Chemical Co., St. Louis, Mo.). GLA was prepared at a concentration of 1 mg/mL in ethanol and was added to a final concentration of 0, 5, 10, or 20 μg/mL; an equal volume of ethanol was added to control cells. […] A) Cell surface expression of Her-2/neu protein in BT-474 and SK-Br3 cells was determined by flow cytometry using a mouse anti-Her-2/neu antibody directed against the extracellular domain of the p185^Her-2/neu oncoprotein (clone Ab-5; Oncogene Research Products; San Diego, Calif.). Briefly, after GLA or control treatment, cells were washed, harvested, resuspended in phosphate-buffered saline (PBS) containing 1% FBS, and incubated with 5 μg/mL Ab-5 antibody for 1 hour at 4° C. The cells were washed again and then incubated with a fluorescein isothiocyanate (FITC)-conjugated anti-mouse IgG secondary antibody (Jackson ImnunoResearch Laboratories, West Grove, Pa.) diluted 1:200 in cold PBS containing 1% FBS for 45 minutes at 4° C. The cells were washed once more in cold PBS, and flow cytometric analysis was performed with a FACScalibur flow cytometer (Becton Dickinson, San Diego, Calif.) equipped with Cell Quest Software (Becton Dickinson). […] As a control for nonspecific immunofluorescence, cells were stained with the secondary antibody alone (solid black line). The mean fluorescence signal associated with cells for labeled p185^Her-2/neu was quantified using the Geo Mean (GM) fluorescence parameter provided with the software. […] B) Immunoblot analysis of Her-2/neu and PEA3 proteins in control- and GLA-treated BT-474 and SK-Br3 cells. […] Immunoreactive bands were detected by enhanced chemiluminescence reagent (Pierce, Rockford, Ill.). Blots were reprobed with an anti-β-actin goat polyclonal antibody (Santa Cruz Biotechnology) to control for protein loading and transfer. Densitometric values of protein bands were quantified using Scion Imaging Software (Scion Corp., Frederick, Md.).

SK-Br3 cells = experiment: MTT cell viability / isobologram analysis, SK-Br3
Protocol: FIG. 10. […] Cells in exponential growth were harvested, seeded at a concentration of ˜5×10^3 cells/200 μl/well into 96-well plates and allowed to attach overnight. […] Agents were studied in combination concurrently, and they were not renewed during the entire period of cell exposure. After treatment, the medium was removed and replaced by fresh drug-free medium (100 μl/well), and MTT (5 mg/ml in phosphate-buffered saline [PBS]) was added to each well at a 1/10 volume. After 2-3 hours at 37° C., the supernatants were removed, 100 μl of dimethylsulfoxide was added to each well, and the plates were agitated. Absorbances were measured at 570 nm using a multiwell plate reader (Model Anthos Labtec 2010 1.7 reader). The cell viability effects from exposure of cells to each agent alone and to their combination were analyzed by generating concentration-effect curves as a plot of the fraction of unaffected (surviving) cells versus drug concentration. Dose-response curves were plotted as percentages of the control cell absorbances, which were obtained from control wells treated with appropriate concentrations of vehicles that were processed simultaneously. For each treatment, cell viability was evaluated as a percentage using the following equation: (A570 of treated sample/A570 of untreated sample)×100. […] All statistical tests were two-sided. […]

Her-2/neu protein = experiment: Immunoblot analysis of Her-2/neu protein

Row | Compound | levels of cell surface-associated Her-2/neu protein versus vehicle-treated cells (p185^Her-2/neu; BT-474 and SK-Br3 cells, GLA 10 μg/mL for 48 hours) | increase in sensitivity to trastuzumab (SK-Br3 cells; concurrent 10 μg/ml GLA) | Her-2/neu protein levels (Her-2/neu protein; BT-474 and SK-Br3, GLA 10 μg/mL for 48 hours) | Her-2/neu protein levels (Her-2/neu protein; MDA-MB-231 (low Her-2/neu), GLA exposure) | Her-2/neu protein levels (Her-2/neu protein; MDA-MB-453, SK-OV3 and NCI-N87, GLA 10 μg/mL for 48 hours) | reduction of cell surface-associated p185^Her-2/neu expression (p185^Her-2/neu; BT-474 cells) | down-regulation of p185^Her-2/neu expression (p185^Her-2/neu; BT-474 cells, alone or concurrently combined) | reduction of cell surface-associated p185^Her-2/neu expression (p185^Her-2/neu; SK-Br3 cells) | down-regulation of p185^Her-2/neu expression (p185^Her-2/neu; SK-Br3 cells, alone or combined) | sensitization factor (IC50 without OA / IC50 with OA) (SK-Br3 cells; OA co-exposure, sensitization to trastuzumab) | Her-2/neu protein levels (Her-2/neu protein; MCF-7/Her2-18 transfectants (SV40 promoter), OA treatment) | Her-2/neu protein levels (Her-2/neu protein; MCF-7/neo cells, OA supplementation) | Her-2/neu protein expression (Her-2/neu protein; SK-Br3, SK-OV3 and NCI-N87, OA 20 μM, 48 hours)
1 | CCCCCC=CCC=CCC=CCCCCC(=O)O [GLA, 6,9,12-octadecatrienoic acid] | substantially lower | ~40 fold | substantial reduction | did not affect | markedly decreased |  |  |  |  |  |  |  | 
2 | CCCCCCCCC=CCCCCCCCC(=O)O [OA, 9-octadecenoic acid] |  |  |  |  |  | up to 46% | 36% | up to 36% | 24% | 27 fold | failed to decrease | not significantly affected | down-regulation
